Results from PubChem BioAssay (NCI).
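Grown in 96-well plates, cells were treated for 48 hours with each compound at five concentrations. Insufficient inhibition: endpoint recorded as highest concentration tested. The concentration for 50% growth inhibition is given as GI50. TGI: concentration producing complete growth inhibition.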

Legend:
Test in all cases: NCI-60 cell line screen, 48 h
786-0 renal = test system: 786-0 renal
A498 renal = test system: A498 renal
A549 NSCLC = test system: A549 NSCLC
ACHN renal = test system: ACHN renal
BT-549 breast = test system: BT-549 breast
CAKI-1 renal = test system: CAKI-1 renal
CCRF-CEM leukemia = test system: CCRF-CEM leukemia
COLO 205 colon = test system: COLO 205 colon
DU-145 prostate = test system: DU-145 prostate
EKVX NSCLC = test system: EKVX NSCLC
HCC-2998 colon = test system: HCC-2998 colon
HCT-116 colon = test system: HCT-116 colon
HCT-15 colon = test system: HCT-15 colon
HL-60(TB) leukemia = test system: HL-60(TB) leukemia
HOP-62 NSCLC = test system: HOP-62 NSCLC
HOP-92 NSCLC = test system: HOP-92 NSCLC
HS 578T breast = test system: HS 578T breast
HT29 colon = test system: HT29 colon
IGROV1 ovarian = test system: IGROV1 ovarian
K-562 leukemia = test system: K-562 leukemia
KM12 colon = test system: KM12 colon
LOX IMVI melanoma = test system: LOX IMVI melanoma
M14 melanoma = test system: M14 melanoma
MALME-3M melanoma = test system: MALME-3M melanoma
MCF7 breast = test system: MCF7 breast
MDA-MB-231 breast = test system: MDA-MB-231 breast
MDA-MB-435 = test system: MDA-MB-435
MOLT-4 leukemia = test system: MOLT-4 leukemia
NCI-H226 lung = test system: NCI-H226 lung
NCI-H23 lung = test system: NCI-H23 lung
NCI-H460 lung = test system: NCI-H460 lung
NCI-H522 lung = test system: NCI-H522 lung
NCI/ADR-RES ovarian = test system: NCI/ADR-RES ovarian
OVCAR-3 ovarian = test system: OVCAR-3 ovarian
OVCAR-4 ovarian = test system: OVCAR-4 ovarian
OVCAR-5 ovarian = test system: OVCAR-5 ovarian
OVCAR-8 ovarian = test system: OVCAR-8 ovarian
PC-3 prostate = test system: PC-3 prostate
RPMI-8226 leukemia = test system: RPMI-8226 leukemia
RXF 393 renal = test system: RXF 393 renal
SF-268 CNS = test system: SF-268 CNS
SF-295 CNS = test system: SF-295 CNS
SF-539 CNS = test system: SF-539 CNS
SK-MEL-2 melanoma = test system: SK-MEL-2 melanoma
SK-MEL-28 melanoma = test system: SK-MEL-28 melanoma
SK-MEL-5 melanoma = test system: SK-MEL-5 melanoma
SK-OV-3 ovarian = test system: SK-OV-3 ovarian
SN12C renal = test system: SN12C renal
SNB-19 CNS = test system: SNB-19 CNS
SNB-75 CNS = test system: SNB-75 CNS
SR leukemia = test system: SR leukemia
SW-620 colon = test system: SW-620 colon
T-47D breast = test system: T-47D breast
TK-10 renal = test system: TK-10 renal
U251 CNS = test system: U251 CNS
UACC-257 melanoma = test system: UACC-257 melanoma
UACC-62 melanoma = test system: UACC-62 melanoma
UO-31 renal = test system: UO-31 renal

**Q.** Which GI50 (786-0 renal) does the source give for `COc1ccc(C(=O)Nc2ncc(Cc3ccccc3Cl)s2)cc1` here?
**A.** 0.4 µM

**Q.** What about the TGI (786-0 renal) of the same compound?
**A.** 22.6 µM

**Q.** And the GI50 (A498 renal)?
**A.** 6.54 µM

**Q.** And the TGI (A498 renal)?
**A.** 33.7 µM

**Q.** And the GI50 (A549 NSCLC)?
**A.** 0.435 µM

**Q.** What about the TGI (A549 NSCLC) of the same compound?
**A.** > 47.4 µM

**Q.** And the GI50 (ACHN renal)?
**A.** 0.502 µM

**Q.** And the TGI (ACHN renal)?
**A.** 18.3 µM

**Q.** What about the GI50 (BT-549 breast) of the same compound?
**A.** 0.427 µM

**Q.** And the TGI (BT-549 breast)?
**A.** 11 µM

**Q.** And the GI50 (CAKI-1 renal)?
**A.** 0.138 µM

**Q.** And the TGI (CAKI-1 renal)?
**A.** 16.6 µM

**Q.** What about the GI50 (CCRF-CEM leukemia) of the same compound?
**A.** 0.148 µM

**Q.** What about the TGI (CCRF-CEM leukemia) of the same compound?
**A.** > 100 µM

**Q.** And the GI50 (COLO 205 colon)?
**A.** 0.264 µM

**Q.** And the TGI (COLO 205 colon)?
**A.** 1.03 µM

**Q.** And the GI50 (DU-145 prostate)?
**A.** 0.415 µM

**Q.** What about the TGI (DU-145 prostate) of the same compound?
**A.** 14.2 µM

**Q.** What about the GI50 (EKVX NSCLC) of the same compound?
**A.** 1.79 µM

**Q.** And the TGI (EKVX NSCLC)?
**A.** 38.6 µM

**Q.** And the GI50 (HCC-2998 colon)?
**A.** 0.24 µM

**Q.** What about the TGI (HCC-2998 colon) of the same compound?
**A.** 3.66 µM

**Q.** And the GI50 (HCT-116 colon)?
**A.** 0.114 µM

**Q.** And the TGI (HCT-116 colon)?
**A.** 15.7 µM

**Q.** What about the GI50 (HCT-15 colon) of the same compound?
**A.** 0.0593 µM

**Q.** And the TGI (HCT-15 colon)?
**A.** 13.2 µM

**Q.** And the GI50 (HL-60(TB) leukemia)?
**A.** 0.0873 µM

**Q.** What about the TGI (HL-60(TB) leukemia) of the same compound?
**A.** 1.95 µM

**Q.** And the GI50 (HOP-62 NSCLC)?
**A.** 0.667 µM

**Q.** What about the TGI (HOP-62 NSCLC) of the same compound?
**A.** 18.7 µM

**Q.** And the GI50 (HOP-92 NSCLC)?
**A.** 11.8 µM

**Q.** And the TGI (HOP-92 NSCLC)?
**A.** > 80.2 µM

**Q.** What about the GI50 (HS 578T breast) of the same compound?
**A.** 0.309 µM

**Q.** What about the TGI (HS 578T breast) of the same compound?
**A.** 23.6 µM

**Q.** And the GI50 (HT29 colon)?
**A.** 0.128 µM

**Q.** And the TGI (HT29 colon)?
**A.** 2.23 µM

**Q.** And the GI50 (IGROV1 ovarian)?
**A.** 0.486 µM

**Q.** And the TGI (IGROV1 ovarian)?
**A.** 26.8 µM

**Q.** And the GI50 (K-562 leukemia)?
**A.** 0.06 µM

**Q.** What about the TGI (K-562 leukemia) of the same compound?
**A.** > 100 µM

**Q.** And the GI50 (KM12 colon)?
**A.** 0.14 µM

**Q.** And the TGI (KM12 colon)?
**A.** 23 µM

**Q.** What about the GI50 (LOX IMVI melanoma) of the same compound?
**A.** 0.259 µM

**Q.** What about the TGI (LOX IMVI melanoma) of the same compound?
**A.** > 35 µM

**Q.** What about the GI50 (M14 melanoma) of the same compound?
**A.** 0.162 µM

**Q.** And the TGI (M14 melanoma)?
**A.** > 36.6 µM

**Q.** And the GI50 (MALME-3M melanoma)?
**A.** 1.12 µM

**Q.** What about the TGI (MALME-3M melanoma) of the same compound?
**A.** 23.1 µM

**Q.** And the GI50 (MCF7 breast)?
**A.** 0.137 µM

**Q.** And the TGI (MCF7 breast)?
**A.** > 34.5 µM

**Q.** And the GI50 (MDA-MB-231 breast)?
**A.** 0.437 µM

**Q.** And the TGI (MDA-MB-231 breast)?
**A.** 20 µM

**Q.** What about the GI50 (MDA-MB-435) of the same compound?
**A.** 0.0316 µM

**Q.** And the TGI (MDA-MB-435)?
**A.** 0.122 µM

**Q.** And the GI50 (MOLT-4 leukemia)?
**A.** 0.266 µM

**Q.** And the TGI (MOLT-4 leukemia)?
**A.** > 100 µM

**Q.** What about the GI50 (NCI-H226 lung) of the same compound?
**A.** 0.283 µM

**Q.** What about the TGI (NCI-H226 lung) of the same compound?
**A.** 2.53 µM

**Q.** And the GI50 (NCI-H23 lung)?
**A.** 0.625 µM

**Q.** What about the TGI (NCI-H23 lung) of the same compound?
**A.** 30.5 µM

**Q.** What about the GI50 (NCI-H460 lung) of the same compound?
**A.** 0.147 µM

**Q.** What about the TGI (NCI-H460 lung) of the same compound?
**A.** 5.2 µM

**Q.** And the GI50 (NCI-H522 lung)?
**A.** 0.118 µM

**Q.** And the TGI (NCI-H522 lung)?
**A.** 0.387 µM

**Q.** What about the GI50 (NCI/ADR-RES ovarian) of the same compound?
**A.** 0.145 µM

**Q.** And the TGI (NCI/ADR-RES ovarian)?
**A.** 3.79 µM

**Q.** And the GI50 (OVCAR-3 ovarian)?
**A.** 0.191 µM

**Q.** What about the TGI (OVCAR-3 ovarian) of the same compound?
**A.** 5.22 µM

**Q.** And the GI50 (OVCAR-4 ovarian)?
**A.** 2.07 µM

**Q.** And the TGI (OVCAR-4 ovarian)?
**A.** 30 µM

**Q.** What about the GI50 (OVCAR-5 ovarian) of the same compound?
**A.** 0.406 µM

**Q.** And the TGI (OVCAR-5 ovarian)?
**A.** 22.6 µM

**Q.** What about the GI50 (OVCAR-8 ovarian) of the same compound?
**A.** 0.462 µM

**Q.** What about the GI50 (PC-3 prostate) of the same compound?
**A.** 0.274 µM

**Q.** What about the TGI (PC-3 prostate) of the same compound?
**A.** > 68.4 µM

**Q.** What about the GI50 (RPMI-8226 leukemia) of the same compound?
**A.** 0.27 µM

**Q.** What about the TGI (RPMI-8226 leukemia) of the same compound?
**A.** > 100 µM

**Q.** And the GI50 (RXF 393 renal)?
**A.** 0.126 µM

**Q.** And the TGI (RXF 393 renal)?
**A.** 1.41 µM

**Q.** What about the GI50 (SF-268 CNS) of the same compound?
**A.** 1.58 µM

**Q.** What about the TGI (SF-268 CNS) of the same compound?
**A.** 58.3 µM

**Q.** And the GI50 (SF-295 CNS)?
**A.** 0.214 µM

**Q.** What about the TGI (SF-295 CNS) of the same compound?
**A.** 6.43 µM

**Q.** And the GI50 (SF-539 CNS)?
**A.** 0.179 µM

**Q.** What about the TGI (SF-539 CNS) of the same compound?
**A.** 0.842 µM

**Q.** And the GI50 (SK-MEL-2 melanoma)?
**A.** 0.176 µM

**Q.** What about the TGI (SK-MEL-2 melanoma) of the same compound?
**A.** 3.83 µM

**Q.** And the GI50 (SK-MEL-28 melanoma)?
**A.** 1.55 µM

**Q.** And the TGI (SK-MEL-28 melanoma)?
**A.** > 66.4 µM

**Q.** What about the GI50 (SK-MEL-5 melanoma) of the same compound?
**A.** 0.307 µM

**Q.** And the TGI (SK-MEL-5 melanoma)?
**A.** 6.44 µM

**Q.** And the GI50 (SK-OV-3 ovarian)?
**A.** 0.372 µM

**Q.** And the TGI (SK-OV-3 ovarian)?
**A.** 16.6 µM

**Q.** And the GI50 (SN12C renal)?
**A.** 0.309 µM

**Q.** And the TGI (SN12C renal)?
**A.** 20.4 µM

**Q.** And the GI50 (SNB-19 CNS)?
**A.** 0.404 µM

**Q.** And the TGI (SNB-19 CNS)?
**A.** 19.2 µM

**Q.** And the GI50 (SNB-75 CNS)?
**A.** 0.201 µM

**Q.** And the TGI (SNB-75 CNS)?
**A.** 6.02 µM

**Q.** And the GI50 (SR leukemia)?
**A.** 0.0398 µM

**Q.** What about the TGI (SR leukemia) of the same compound?
**A.** > 100 µM

**Q.** And the GI50 (SW-620 colon)?
**A.** 0.106 µM

**Q.** What about the TGI (SW-620 colon) of the same compound?
**A.** > 100 µM

**Q.** And the GI50 (T-47D breast)?
**A.** 2.09 µM

**Q.** And the TGI (T-47D breast)?
**A.** > 56.7 µM

**Q.** What about the GI50 (TK-10 renal) of the same compound?
**A.** 11.9 µM

**Q.** And the TGI (TK-10 renal)?
**A.** 41.1 µM

**Q.** And the GI50 (U251 CNS)?
**A.** 0.288 µM

**Q.** And the TGI (U251 CNS)?
**A.** 23.1 µM

**Q.** And the GI50 (UACC-257 melanoma)?
**A.** 5.87 µM

**Q.** And the TGI (UACC-257 melanoma)?
**A.** > 65.5 µM

**Q.** What about the GI50 (UACC-62 melanoma) of the same compound?
**A.** 0.127 µM

**Q.** What about the TGI (UACC-62 melanoma) of the same compound?
**A.** 16.3 µM

**Q.** What about the GI50 (UO-31 renal) of the same compound?
**A.** 0.696 µM

**Q.** And the TGI (UO-31 renal)?
**A.** 38.1 µM
